In patent publication US20090208517A1, “Preparation Of Antigen-Presenting Human Gamma-Delta T Cells And Use In Immunotherapy” (priority 2004, published 2009):

Tested on: naïve CD4^+ αβ T cells
Type: cell-based, human

For phytohemagglutinin [PHA], the “Vβ2^+ (%) responder cells” value was 9% and the “selective expansion of Vβ2^+ T cells (in words)” value was “does not result in selective expansion of Vβ2^+ T cells”.
